Reference: PMC3458005, “Involvement of the Azotobacter vinelandii Rhodanese-Like Protein RhdA in the Glutathione Regeneration Pathway” (PLoS ONE, 2012)

Assays:
RhdA = target: T1, RhdA (Azotobacter vinelandii, UniProt P52197); assay: intrinsic tryptophan fluorescence titration; type: binding
T1 construct: His-tagged (pQER1) from E. coli BL21[pRep4], Ni-NTA purified; cyanide-treated (sulfane sulfur-deprived); only cysteine Cys230

[1] = tested on: N[C@@H](CCC(=O)N[C@@H](C[S])C(=O)NCC(=O)O)C(=O)O; assay: purified protein; conditions: pH 7.4; 25.0 °C

T1 sequence (P52197 whole entry): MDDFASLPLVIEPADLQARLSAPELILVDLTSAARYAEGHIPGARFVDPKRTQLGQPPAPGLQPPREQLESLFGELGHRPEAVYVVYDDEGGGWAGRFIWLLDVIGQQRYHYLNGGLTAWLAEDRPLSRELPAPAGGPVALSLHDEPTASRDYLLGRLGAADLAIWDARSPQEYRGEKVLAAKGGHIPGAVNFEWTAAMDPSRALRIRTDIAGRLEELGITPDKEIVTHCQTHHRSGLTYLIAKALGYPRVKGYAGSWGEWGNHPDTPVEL

O=S(O)(O)=S [thiosulfate]
Kd (RhdA): 0.76 ± 0.01 µM

RhdA (Azotobacter vinelandii)
Km [1]: 560 ± 110 µM

N[C@@H](CCC(=O)N[C@@H](C[S])C(=O)NCC(=O)O)C(=O)O [GS^•, glutathione thiyl radical]
Kd (RhdA): ~11 µM
